Values after ≈ are worked out from the molar mass of the structure shown.
Columns and labels:
Type in all cases: functional
Pseudomonas aeruginosa = experiment: Antibacterial activity against Pseudomonas aeruginosa obtained from complicated skin and skin structure infections by agar dilution method
Citrobacter braakii = experiment: Antibacterial activity against Citrobacter braakii obtained from complicated skin and skin structure infections by agar dilution method
Escherichia coli = experiment: Antibacterial activity against Escherichia coli obtained from complicated skin and skin structure infections by agar dilution method
Pseudomonas fluorescens = experiment: Antibacterial activity against Pseudomonas fluorescens obtained from complicated skin and skin structure infections by agar dilution method
Serratia marcescens = experiment: Antibacterial activity against Serratia marcescens obtained from complicated skin and skin structure infections by agar dilution method
Klebsiella oxytoca = experiment: Antibacterial activity against Klebsiella oxytoca obtained from complicated skin and skin structure infections by agar dilution method
Enterobacter amnigenus = experiment: Antibacterial activity against Enterobacter amnigenus obtained from complicated skin and skin structure infections by agar dilution method; conditions: Lelliottia amnigena
Acinetobacter baumannii = experiment: Antibacterial activity against Acinetobacter baumannii obtained from complicated skin and skin structure infections by agar dilution method
Klebsiella aerogenes = experiment: Antibacterial activity against Enterobacter aerogenes obtained from complicated skin and skin structure infections by agar dilution method
Citrobacter freundii = experiment: Antibacterial activity against Citrobacter freundii obtained from complicated skin and skin structure infections by agar dilution method
Proteus penneri = experiment: Antibacterial activity against Proteus penneri obtained from complicated skin and skin structure infections by agar dilution method
[1] = tested on: Stenotrophomonas maltophilia; experiment: Antibacterial activity against Stenotrophomonas maltophilia obtained from complicated skin and skin structure infections by agar dilution method
Enterobacter cloacae = experiment: Antibacterial activity against Enterobacter cloacae obtained from complicated skin and skin structure infections by agar dilution method
Proteus mirabilis = experiment: Antibacterial activity against Proteus mirabilis obtained from complicated skin and skin structure infections by agar dilution method
Klebsiella pneumoniae = experiment: Antibacterial activity against Klebsiella pneumoniae obtained from complicated skin and skin structure infections by agar dilution method
Proteus vulgaris = experiment: Antibacterial activity against Proteus vulgaris obtained from complicated skin and skin structure infections by agar dilution method
Morganella morganii = experiment: Antibacterial activity against Morganella morganii obtained from complicated skin and skin structure infections by agar dilution method
Salmonella = experiment: Antibacterial activity against Salmonella spp. obtained from complicated skin and skin structure infections by agar dilution method
Providencia stuartii = experiment: Antibacterial activity against Providencia stuartii obtained from complicated skin and skin structure infections by agar dilution method

| Compound | MIC50 (Pseudomonas aeruginosa) | MIC90 (Pseudomonas aeruginosa) | MIC50 (Citrobacter braakii) | MIC90 (Citrobacter braakii) | MIC50 (Escherichia coli) | MIC90 (Escherichia coli) | MIC50 (Pseudomonas fluorescens) | MIC90 (Pseudomonas fluorescens) | MIC50 (Serratia marcescens) | MIC90 (Serratia marcescens) | MIC50 (Klebsiella oxytoca) | MIC90 (Klebsiella oxytoca) | MIC50 (Enterobacter amnigenus) | MIC90 (Enterobacter amnigenus) | MIC50 (Acinetobacter baumannii) | MIC90 (Acinetobacter baumannii) | MIC50 (Klebsiella aerogenes) | MIC90 (Klebsiella aerogenes) | MIC50 (Citrobacter freundii) | MIC90 (Citrobacter freundii) | also measured |
| --- | --- | --- | --- | --- | --- | --- | --- | --- | --- | --- | --- | --- | --- | --- | --- | --- | --- | --- | --- | --- | --- |
| GENTAMICIN | 4 µg/mL | > 16 µg/mL |  |  |  |  |  |  |  |  |  |  |  |  |  |  |  |  |  |  |  |
| C[C@@H](O)[C@H]1C(=O)N2C(C(=O)O)=C(S[C@@H]3CN[C@H](C(=O)N(C)C)C3)[C@H](C)[C@H]12 [MEROPENEM] | 4 µg/mL (≈ 10.4 µM) | 8 µg/mL (≈ 20.9 µM) | 0.03 µg/mL (≈ 0.0782 µM) | ≤ 0.12 µg/mL | 0.015 µg/mL (≈ 0.0391 µM) | ≤ 0.12 µg/mL | 2 µg/mL (≈ 5.22 µM) | > 32 µg/mL | 0.03 µg/mL (≈ 0.0782 µM) | ≤ 0.12 µg/mL | 0.03 µg/mL (≈ 0.0782 µM) | ≤ 0.12 µg/mL | 0.03 µg/mL (≈ 0.0782 µM) | ≤ 0.12 µg/mL | 2 µg/mL (≈ 5.22 µM) | > 32 µg/mL | 0.03 µg/mL (≈ 0.0782 µM) | ≤ 0.12 µg/mL | 0.03 µg/mL (≈ 0.0782 µM) | ≤ 0.12 µg/mL | MIC (Escherichia coli): 0.015 µg/mL (≈ 0.0391 µM); MIC50 (Proteus penneri): 0.03 µg/mL (≈ 0.0782 µM); MIC90 (Proteus penneri): ≤ 0.12 µg/mL; MIC50 [1]: 2 µg/mL (≈ 5.22 µM); MIC90 [1]: > 32 µg/mL; MIC50 (Enterobacter cloacae): 0.03 µg/mL (≈ 0.0782 µM); MIC90 (Enterobacter cloacae): ≤ 0.12 µg/mL; MIC50 (Proteus mirabilis): 0.06 µg/mL (≈ 0.156 µM); MIC90 (Proteus mirabilis): ≤ 0.12 µg/mL; MIC50 (Klebsiella pneumoniae): 0.03 µg/mL (≈ 0.0782 µM); MIC90 (Klebsiella pneumoniae): ≤ 0.12 µg/mL; MIC50 (Proteus vulgaris): 0.03 µg/mL (≈ 0.0782 µM); MIC90 (Proteus vulgaris): ≤ 0.12 µg/mL; MIC50 (Morganella morganii): ≤ 0.12 µg/mL; MIC90 (Morganella morganii): 0.12 µg/mL (≈ 0.313 µM); MIC50 (Salmonella): 0.03 µg/mL (≈ 0.0782 µM); MIC90 (Salmonella): ≤ 0.12 µg/mL; MIC50 (Providencia stuartii): 0.03 µg/mL (≈ 0.0782 µM); MIC90 (Providencia stuartii): ≤ 0.12 µg/mL |
| O=C(O)c1cn(C2CC2)c2cc(N3CCNCC3)c(F)cc2c1=O [CIPROFLOXACIN] | 1 µg/mL (≈ 3.02 µM) | > 8 µg/mL | 0.015 µg/mL (≈ 0.0453 µM) | > 2 µg/mL | 0.015 µg/mL (≈ 0.0453 µM) | 1 µg/mL (≈ 3.02 µM) | > 2 µg/mL | > 8 µg/mL | 0.015 µg/mL (≈ 0.0453 µM) | > 2 µg/mL | 0.015 µg/mL (≈ 0.0453 µM) | > 2 µg/mL | 0.015 µg/mL (≈ 0.0453 µM) | > 2 µg/mL | > 2 µg/mL | > 8 µg/mL | 0.015 µg/mL (≈ 0.0453 µM) | > 2 µg/mL | 0.015 µg/mL (≈ 0.0453 µM) | > 2 µg/mL | MIC50 (Proteus penneri): 0.015 µg/mL (≈ 0.0453 µM); MIC90 (Proteus penneri): > 2 µg/mL; MIC50 [1]: > 2 µg/mL; MIC90 [1]: > 8 µg/mL; MIC50 (Proteus mirabilis): 0.03 µg/mL (≈ 0.0905 µM); MIC90 (Proteus mirabilis): > 2 µg/mL; MIC50 (Proteus vulgaris): 0.015 µg/mL (≈ 0.0453 µM); MIC90 (Proteus vulgaris): > 2 µg/mL; MIC50 (Morganella morganii): 0.12 µg/mL (≈ 0.362 µM); MIC90 (Morganella morganii): > 8 µg/mL; MIC50 (Salmonella): 0.015 µg/mL (≈ 0.0453 µM); MIC90 (Salmonella): > 2 µg/mL; MIC50 (Providencia stuartii): 0.015 µg/mL (≈ 0.0453 µM); MIC90 (Providencia stuartii): > 2 µg/mL |
| CO/N=C(\C(=O)N[C@@H]1C(=O)N2C(C(=O)O)=C(CSc3nc(=O)c(O)nn3C)CS[C@H]12)c1csc(N)n1 [CEFTRIAXONE] | 64 µg/mL (≈ 115 µM) | > 128 µg/mL | 0.06 µg/mL (≈ 0.108 µM) | 64 µg/mL (≈ 115 µM) | 0.06 µg/mL (≈ 0.108 µM) | 0.25 µg/mL (≈ 0.451 µM) | > 32 µg/mL | > 128 µg/mL | 0.06 µg/mL (≈ 0.108 µM) | 64 µg/mL (≈ 115 µM) | 0.06 µg/mL (≈ 0.108 µM) | 64 µg/mL (≈ 115 µM) | 0.06 µg/mL (≈ 0.108 µM) | 64 µg/mL (≈ 115 µM) | > 32 µg/mL | > 128 µg/mL | 0.06 µg/mL (≈ 0.108 µM) | 64 µg/mL (≈ 115 µM) | 0.06 µg/mL (≈ 0.108 µM) | 64 µg/mL (≈ 115 µM) | MIC50 (Proteus penneri): 0.06 µg/mL (≈ 0.108 µM); MIC90 (Proteus penneri): 64 µg/mL (≈ 115 µM); MIC50 [1]: > 32 µg/mL; MIC90 [1]: > 128 µg/mL; MIC50 (Enterobacter cloacae): ≤ 0.25 µg/mL; MIC90 (Enterobacter cloacae): 64 µg/mL (≈ 115 µM); MIC50 (Proteus mirabilis): ≤ 0.015 µg/mL; MIC90 (Proteus mirabilis): 4 µg/mL (≈ 7.21 µM); MIC50 (Klebsiella pneumoniae): 0.12 µg/mL (≈ 0.216 µM); MIC90 (Klebsiella pneumoniae): 64 µg/mL (≈ 115 µM); MIC50 (Proteus vulgaris): 0.06 µg/mL (≈ 0.108 µM); MIC90 (Proteus vulgaris): 64 µg/mL (≈ 115 µM); MIC50 (Morganella morganii): 0.03 µg/mL (≈ 0.0541 µM); MIC90 (Morganella morganii): > 128 µg/mL; MIC50 (Salmonella): 0.06 µg/mL (≈ 0.108 µM); MIC90 (Salmonella): 64 µg/mL (≈ 115 µM); MIC50 (Providencia stuartii): 0.06 µg/mL (≈ 0.108 µM); MIC90 (Providencia stuartii): 64 µg/mL (≈ 115 µM) |
